The numbers were not newly measured in patent publication KR20140119363A, “보리코나졸이 함유된 안정화된 조성물” (에스케이케미칼주식회사, priority 2013, dated 2014), which cites them from elsewhere.

Series [1] relates to deep-seated mycosis [심재성 진균증].
For series [2] the following is noted: in vivo.
The conditions of series [3]: degradation product triazole acetophenone formed.

For `C[C@@H]1[C@H](O)[C@@H](C)/C=C/C=C/C=C/C=C/C=C/C=C/C=C/[C@H](O[C@@H]2O[C@H](C)[C@@H](O)[C@H](N)[C@@H]2O)C[C@@H]2O[C@](O)(C[C@@H](O)C[C@@H](O)[C@H](O)CC[C@@H](O)C[C@@H](O)CC(=O)O[C@H]1C)C[C@H](O)[C@H]2C(=O)O` [암포테리신 B], in series [1] (overall average), the response rate is about 34%. Besides, the nephrotoxicity result in series [2] is “심각한 문제”. Turning to `CCC(C)n1ncn(-c2ccc(N3CCN(c4ccc(OCC5COC(Cn6cncn6)(c6ccc(Cl)cc6Cl)O5)cc4)CC3)cc2)c1=O` (stereo not shown) [이트라코나졸], the treatment success rate result in series [1] (in vivo) is “그다지 높지 않은”. On to `C[C@@H](c1ncncc1F)[C@](O)(Cn1cncn1)c1ccc(F)cc1F` [보리코나졸], for which the “stability to moisture and heat” value in series [3] is “수분 및 열에 불안정”.
